Like-named read-outs stand apart in the source and are kept apart here.
How the values were obtained:
human full length Hsp90 = target: T1, human full length Hsp90 (Homo sapiens, UniProt P07900); experiment: Fluorescence polarization Hsp90 competitive binding assay (GM-FITC displacement)
T1 construct: amino acid residues 1 to 732 of human Hsp90 (GenBank: BC121062.2); made in house; host or cells: E. coli BL21DE3 (pET15b)
Method: Hsp90 binding assays was performed generally according to the procedure described in J. Biomol. […] Hsp90 inhibitors were solubilized in DMSO at a stock concentration of 50 mM. […] Eighty five μl of binding assay buffer (20 mM HEPES, pH-7.5, 50 mM KCl, 5 mM MgCl2, 20 mM sodium molybdate, 0.01% NP-40, 2 mM DTT, and 0.1 mg/ml BSA) was added to the wells of a 96 well black plate placed on ice. […] Next, 10 μl either binding assay buffer alone (control) or human full length Hsp90 protein diluted in the binding assay buffer was added to achieve a final concentration of 50 nM. The plates were incubated at 4° C. on a plate shaker for 24 h. Two μl of 50× GM-FITC (9 nM final) in DMSO was added to all wells and the plate was incubated at ambient temperature for 1 h with shaking. Fluorescence polarization readings were taken in duplicate at excitation and emission wavelengths of 480 nm and 500 nm respectively. Specific binding was calculated by subtracting polarization values in the presence of Hsp90 from those in the absence of Hsp90. To calculate percent inhibition the specific binding values obtained for GA-FITC in the presence of compound were compared to values for GA-FITC in the absence of compound (DMSO only).

Caspase-3 in LnCaP cells = experiment: Caspase 3/7 induction; assay type: cell-based, human; details: 10 μM concentration
Method: Akt1 levels in the cell lysates were measured using kits from R&D Systems used according to the manufacturer's recommendations. Cell lysates were assayed at a 1:24 dilution for the Akt1 ELISA. The Akt1 concentrations in the cell lysates were extrapolated from the standard curve and corrected for lysate protein concentration. Akt1 levels were determined using a micro-titer plate reader (Model #Synergy HT; BioTek Inc., Winooski, Vt.). LnCaP cells were cultured in culture medium and passaged after lifting using 0.25% trypsin/EDTA. LnCaP cells were seeded into a 96 well tissue culture plate at 1.3×10^4 cells per well in a volume of 100 uL of culture medium. […] Caspase 3/7 activity was measured using a Homogeneous Caspase 3/7 Assay Kit used according to the manufacturer's recommendations. In detail, an equal volume of Caspase 3/7 Assay Kit reagent was added to the wells and fluorescence readings (Ex/Em 485/528) were taken after 3, 6, and 23 h at ambient temperature using a micro-titer plate reader. […] Fluorescence intensities of the dilutions were measured to obtain a standard curve. […] Cell viability was measured with the ATPlite Kit used according to the manufacturer's recommendation. […] Cultures were mixed at 1,000 rpm for 2 min in the dark and luminescence quantification was accomplished using a micro-titer plate reader (POLARstar Omega micro-titer plate reader; BMG Labtech).

[1] = Rat CNS exposure (plasma and CNS tissue concentration, LC-MS/MS); assay type: in vivo; details: ex-vivo CNS tissue
Method: Test subjects (Sprague-Dawley rats) were housed in sterile vivarium with controlled temperature, humidity and 12-hour light-dark cycle (7:00 lights-on and 19:00 lights-off). Following procurement, rats were acclimated to the vivarium facility for 7 days prior to study day-1 with ad libitum access to both diet and water. Bedding was changed twice weekly. […] On study day-1 rats were administered vehicle or Hsp90 inhibitor formulation. Following administrations of test article formulation, blood and CNS tissue was collected at 6.5 h post-dosed by a necropsy procedure. In detail, CNS tissue was isolated from the Vehicle and dose groups, divided into 2 mid-sagittal sections, placed in tarred 1 mL micro-centrifuge tubes, weighed and immediately frozen on dry ice. Blood was isolated by a cardiac puncture procedure from the Vehicle and Hsp90 inhibitor dose groups. From these samples, plasma was isolated in plasma separator tubes containing ethylenediaminetetraacetic acid as the anticoagulant. HSP90 inhibitor concentrations in plasma and CNS tissue were determined using LC-MS/MS based methods following a 60% acetonitrile extraction.

Hsp90 = experiment: Rat CNS Hsp90 inhibition (ex vivo labeled geldanamycin displacement in CNS lysates); details: 40 mg/kg
R127 = experiment: Efficacy in ovarian cancer cells, ADP-GLO; assay type: cell-based
Method: (§1) The effect of SBI-0640725 on cell viability was determined by measuring cellular dehydrogenase activity (U251MG and MBA-MD-231 cells) or by measuring ADP levels (HepG2) after treating cells for 72 hours with increasing concentrations of SBI-0640725. To measure dehydrogenase activity, CCK-8 kit reagent (Dojindo) was added to the wells and incubated for 2 hours, after which absorbance was measured at 450 nm using a Synergy HT micro-titer plate reader (Biotek). To measure ADP levels, ADP-GLO reagent (Life Technologies) was added to the wells, and luminescence was measured after a 30 minute incubation using a POLARstar Omega micro-titer plate reader (BMG).
(§2) The table below summarizes efficacy of SBI-0640725 in various cancer cell lines, including U251MG, MDA-MB-231, and HepG2, using ADP-GLO assay described above. As used herein “efficacy” (EC50) is the concentration of a compound that produces half-maximal response in a cellular assay.

R182 = experiment: Efficacy in ovarian cancer cells, ADP-GLO; assay type: cell-based
Method: as §1, §2

Hsp70 in U251 MG cells = experiment: Hsp70 induction, ELISA; assay type: cell-based, human; details: U251MG, 48 hours
Method: Experiments were performed using U251 MG and MBA-MD-231 cells to also measure induction of Hsp 70 in response to treatment with SBI-0640725. […] For Hsp70 induction measurements, cells were treated with increasing concentrations of SBI-0640725 for 48 hours, and Hsp70 levels were measured in cell lysates using ELISA.

[2] = IC50, inhibition of Hsp90 activity, FIG. 7 concentration response
[3] = Table 1, 50 nM Hsp90, 9 nM GM-FITC, read-out: Biochemical Potency IC50
[4] = Table II, binding affinities ranked by potency
[5] = Table II, binding affinities ranked by potency, read-out: IC50

IC50 (human full length Hsp90; [2]) [nM]	IC50 (human full length Hsp90; [3]) [nM]	Ki (human full length Hsp90; [4]) [nM]	IC50 (human full length Hsp90; [5]) [nM]	IC50 (human full length Hsp90; assay validation / precision runs, read-out: IC50) [nM]	partitioning CNS (brain) versus plasma ([1]; listed as SB-0639353)	EC50 (R127) [nM]	EC50 (R182) [nM]	Structure (SMILES)	induction of Caspase-3 (Caspase-3 in LnCaP cells)	partitioning CNS (brain) versus plasma [1]	inhibition of Hsp90 activity in CNS tissues (Hsp90)	induction of Hsp70 (Hsp70 in U251 MG cells)
255	255	64	255	255 to 308	preferential partitioning	–	–	COc1c(C)cnc(CN(CCc2ccccc2)c2cc(Cl)nc(N)n2)c1C [SBI-0639353, 6-Chloro-N4-((4-methoxy-3,5-dimethylpyridin-2-yl)methyl)-N4-phenethylpyrimidine-2,4-diamine]	induction of Caspase-3	preferential partitioning into the brain compared to plasma	inhibition of Hsp90 activity	–
101	101	25	101	–	–	410	690	COc1c(C)cnc(CN(CCc2ccc(F)cc2)c2cc(Cl)nc(N)n2)c1C [SBI-0640725]	–	–	–	caused induction of Hsp70
